Active and inactive are the calls of the source. The calls are words filed in the database; no cut-off is given here.
Tests used:
[1] = molecular target: T1, Peroxiredoxin-1 (Homo sapiens, UniProt Q06830); experiment: Inhibition of recombinant PRDX1 (unknown origin) using H2O2 as substrate preincubated for 0.5 hrs followed by substrate addition by TRX-TrxR-NADPH coupling assay
T1 sequence (Q06830 whole entry): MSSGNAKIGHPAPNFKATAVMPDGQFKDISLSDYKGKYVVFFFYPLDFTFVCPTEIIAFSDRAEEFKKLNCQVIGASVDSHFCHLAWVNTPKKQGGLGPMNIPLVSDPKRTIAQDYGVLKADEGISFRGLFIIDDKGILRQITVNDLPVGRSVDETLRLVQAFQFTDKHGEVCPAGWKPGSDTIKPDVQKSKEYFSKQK

[2] = test system: SW-620; experiment: Inhibition of cell viability in human SW620 cells incubated for 72 hrs by Cell Titer Glo assay; assay type: functional, cell-based; conditions: SW-620, 72 h
[3] = test system: HCT-116; experiment: Inhibition of cell viability in human HCT-116 cells incubated for 72 hrs by Cell Titer Glo assay; assay type: functional, cell-based; conditions: HCT-116, 72 h
[4] = Antiproliferative activity against human LX2 cells; assay type: toxicity, cell-based, LX-2
[5] = Selectivity ratio of IC50 for mouse […] cells to IC50 for human SW620 cells; assay type: functional
[6] = molecular target: T2, Peroxiredoxin-2 (Homo sapiens, UniProt P32119); experiment: Inhibition of recombinant PRDX2 (unknown origin) using H2O2 as substrate preincubated for 0.5 hrs followed by substrate addition by TRX-TrxR-NADPH coupling assay
T2 sequence (P32119 whole entry): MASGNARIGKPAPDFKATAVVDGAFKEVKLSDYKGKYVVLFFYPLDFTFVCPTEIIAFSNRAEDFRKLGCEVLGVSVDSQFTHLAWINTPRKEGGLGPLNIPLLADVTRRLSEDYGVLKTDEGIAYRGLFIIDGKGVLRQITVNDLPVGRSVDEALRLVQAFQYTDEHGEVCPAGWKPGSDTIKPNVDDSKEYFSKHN

[7] = molecular target: T3, Peroxiredoxin-5, mitochondrial (Homo sapiens, UniProt P30044); experiment: Inhibition of recombinant PRDX5 (unknown origin) using H2O2 as substrate preincubated for 0.5 hrs followed by substrate addition by TRX-TrxR-NADPH coupling assay
T3 sequence (P30044 whole entry): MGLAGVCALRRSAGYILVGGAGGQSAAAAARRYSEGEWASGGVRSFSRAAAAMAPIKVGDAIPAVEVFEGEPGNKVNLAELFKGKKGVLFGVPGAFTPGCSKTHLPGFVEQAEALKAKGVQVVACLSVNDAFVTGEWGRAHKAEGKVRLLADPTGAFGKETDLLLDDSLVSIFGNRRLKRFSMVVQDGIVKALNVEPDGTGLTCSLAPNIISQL

[8] = molecular target: T4, Peroxiredoxin-6 (Homo sapiens, UniProt P30041); experiment: Inhibition of recombinant PRDX6 (unknown origin) using H2O2 as substrate preincubated for 0.5 hrs followed by substrate addition by TRX-TrxR-NADPH coupling assay
T4 sequence (P30041 whole entry): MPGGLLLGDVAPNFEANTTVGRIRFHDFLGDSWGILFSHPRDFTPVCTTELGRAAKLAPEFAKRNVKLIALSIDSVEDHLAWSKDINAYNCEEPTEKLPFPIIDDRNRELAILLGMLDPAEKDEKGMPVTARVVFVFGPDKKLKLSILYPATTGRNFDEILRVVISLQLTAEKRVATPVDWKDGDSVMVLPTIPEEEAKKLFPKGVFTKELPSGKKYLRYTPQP

[9] = test system: SW-620; experiment: Induction of mitochondrial membrane potential depolarization in human SW620 cells assessed as decrease in JC-1-stained red cells incubated for 48 hrs by flow cytometry; assay type: functional, cell-based; conditions: dose 0.5-2 µM
[10] = test system: SW-620; experiment: Induction of mitochondrial membrane potential depolarization in human SW620 cells assessed as JC-1-stained green cells upto 2 uM incubated for 48 hrs by flow cytometry (reference value: 8.9 %); assay type: functional; conditions: up to 2 µM
[11] = test system: SW-620; experiment: Induction of mitochondrial membrane potential depolarization in human SW620 cells assessed as increase in green fluorescence incubated for 48 hrs by JC1-staining based CLSM analysis; assay type: functional, cell-based; conditions: dose 0.5-2 µM
[12] = test system: SW-620; experiment: Induction of mitochondrial membrane potential depolarization in human SW620 cells assessed as decrease in fluorescence intensity ratio of JC1-stained aggregates to monomers incubated for 48 hrs by CLSM analysis; assay type: functional, cell-based; conditions: dose 0.5-2 µM
[13] = test system: SW-620; experiment: Induction of apoptosis in human SW620 cells assessed as total apoptotic cells at 2 uM incubated for 48 hrs by Annexin V-FITC/PI staining based flow cytometry relative to control; assay type: functional
[14] = test system: SW-620; experiment: Induction of cell cycle arrest at G2 phase in human SW620 cells at 0.5 uM incubated for 24 hrs by PI staining based flow cytometry (reference value: 6.77 %); assay type: functional
[15] = test system: SW-620; experiment: Induction of cell cycle arrest at G1 phase in human SW620 cells at 1 uM incubated for 24 hrs by PI staining based flow cytometry (reference value: 32.4 %); assay type: functional
[16] = test system: SW-620; experiment: Induction of cell cycle arrest at S phase in human SW620 cells at 1 uM incubated for 24 hrs by PI staining based flow cytometry (reference value: 59.9 %); assay type: functional
[17] = test system: SW-620; experiment: Induction of cell cycle arrest at S phase in human SW620 cells at 2 uM incubated for 24 hrs by PI staining based flow cytometry (reference value: 59.9 %); assay type: functional
[18] = test system: SW-620; experiment: Induction of apoptosis in human SW620 cells assessed as increase in Cyt C level incubated for 48 hrs by Western blot analysis; assay type: functional, cell-based; conditions: dose 0.25-2 µM
[19] = Half life in mouse at 2 mg/kg, iv measured for 24 hrs by LC-MS/MS analysis; assay type: ADME, organism-based; conditions: in vivo
[20] = Cmax in mouse at 2 mg/kg, iv measured for 24 hrs by LC-MS/MS analysis; assay type: ADME, organism-based; conditions: in vivo
[21] = AUC (0 to t) in mouse at 2 mg/kg, iv measured for 24 hrs by LC-MS/MS analysis; assay type: ADME, organism-based; conditions: in vivo
[22] = Volume of distribution in mouse at 2 mg/kg, iv measured for 24 hrs by LC-MS/MS analysis; assay type: ADME, organism-based; conditions: in vivo
[23] = Acute toxicity in C57BL/[…] 6J mouse assessed as body weight loss at 20 mg/kg, ip measured for 2 weeks; assay type: organism-based; conditions: in vivo, 336 h
[24] = Acute toxicity in C57BL/[…] 6J mouse assessed as pathological change in heart at 20 mg/kg, ip measured for 2 weeks by H and E staining based analysis; assay type: organism-based; conditions: in vivo, 336 h
[25] = Acute toxicity in C57BL/[…] 6J mouse assessed as pathological change in spleen at 20 mg/kg, ip measured for 2 weeks by H and E staining based analysis; assay type: organism-based; conditions: in vivo, 336 h
[26] = Acute toxicity in C57BL/[…] 6J mouse assessed as pathological change in kidney at 20 mg/kg, ip measured for 2 weeks by H and E staining based analysis; assay type: organism-based; conditions: in vivo, 336 h
[27] = test system: SW-620; experiment: Anti-proliferative activity against human SW620 cells xenografted in BALB/c nude mouse at 2 mg/kg, ip qd for 16 days by TUNEL analysis; assay type: functional, organism-based; conditions: time 16.0 day
[28] = molecular target: T5, Peroxiredoxin-1 (Homo sapiens) (UniProt Q06830)
T5 sequence (whole entry): T1 sequence (Q06830 whole entry)
Description: Binding affinity to recombinant PRDX1 (unknown origin)assessed as change in melting temperature by protein thermal shift assay

[29] = test system: SW-620; experiment: cells; conditions: Homo sapiens, SW-620, 48 h, read-out: Activity
Description: Induction of apoptosis in human SW620 cells assessed as viable cells at 0.5 uM incubated for 48 hrs by Annexin V-FITC/PI staining based flow cytometry (Rvb = 90.7 %)

[30] = test system: SW-620; experiment: cells; conditions: Homo sapiens, SW-620, 48 h, read-out: Activity; remark: listed apart in the source
Description: Induction of apoptosis in human SW620 cells assessed as viable cells at 2 uM incubated for 48 hrs by Annexin V-FITC/PI staining based flow cytometry (Rvb = 90.7 %)

## COC(=O)C1(NC(=O)N[C@]2(C)CC[C@]3(C)CC[C@]4(C)C5=CC=C6C(=CC(=O)C(O)=C6C)[C@]5(C)CC[C@@]4(C)[C@@H]3C2)CCC1
[1]
  IC50: 0.35 µM
[2]
  IC50: 0.32 µM
[3]
  IC50: 0.44 µM
[4]
  IC50: ~1 µM
[5]
  Selectivity ratio: 2
[6]
  IC50: > 50 µM
[7]
  IC50: > 50 µM
[8]
  IC50: > 50 µM
[9]
  Activity: Dose-Dependent Effect
[10]
  Activity: 54.6%
[11]
  Activity: Dose-Dependent Effect
[12]
  Activity: Dose-Dependent Effect
[13]
  Activity: 54.7%
[14]
  Activity: 7.05%
[15]
  Activity: 39.7%
[16]
  Activity: 42.7%
[17]
  Activity: 50.1%
[18]
  Activity: Dose-Dependent Effect
[19]
  half-life: 8.46 h
[20]
  Cmax: 0.203 µg/mL
[21]
  AUC(0-t) at 24 h: 0.364 µg·h/mL
[22]
  Vd: 60.7 L/kg
[23]
  Activity: Non-Toxic
[24]
  Activity: Non-Toxic
[25]
  Activity: Non-Toxic
[26]
  Activity: Non-Toxic
[27]
  Activity: Active
[28]
  ΔTm: -7.5 °C
[29]
  viability at 0.5 µM: 88.5%
[30]
  viability at 2 µM: 41.5%

From ChEMBL document CHEMBL5543168, “Discovery of Urea Derivatives of Celastrol as Selective Peroxiredoxin 1 Inhibitors against Colorectal Cancer Cells” (J Med Chem, 2024)
